Here are results for 1 substance from patent US20210169959A1, “TERMINALIA FERDINANDIANA EXTRACT AND PRODUCTS CONTAINING EXTRACT OF TERMINALIA FERDINANDIANA FOR ANTIMICROBIAL OR ANTIBACTERIAL APPLICATIONS” (RISING PHOENIX INDUSTRIES PTY LTD, priority 2017, published 2021).

One experiment deals with Bacillus anthracis. The experiment in a line: microbe, parasite or virus in culture. The note with it: 10 μL extract per 5 mm disc; penicillin 2 μg, ampicillin 10 μg; mean ± SEM. Format: cell-based.
The test system of a further experiment is Clostridium perfringens. As to the kind of experiment: microbe, parasite or virus in culture. Format: cell-based. The following applies: 10 μL extract per 6 mm disc; penicillin 2 μg, ampicillin 10 μg; mean ± SEM.

Take penicillin: the zones of inhibition is given as 8.3±0.6 mm in the experiment with Bacillus anthracis and 12.3±0.3 mm with Clostridium perfringens.
